According to patent publication US20130165368A1, “ANTIMICROBIAL COMPOUNDS” (priority 2010, published 2013):
≈ marks a conversion by molar mass, not a printed value. Read-outs that look alike come from different tables or passages of the source.

Columns and labels:
Assay type in all cases: cell-based
Steptococcus pyogenes = test: MIC agar dilution, micro-organism 11 (8306); settings: Steptococcus pyogenes 8306
How it was run: (§1)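 Twofold dilutions of compound emulsions in water were set in Isosensitest agar with Brazier's CCEY medium, egg yolk and lysed horse blood. Spots of 1 µL from 0.5 McFarland suspensions diluted 1/15 were incubated aerobically at 37 °C and read at 22 and 48 h. MIC (mmol/L) was the lowest concentration giving <10 colonies.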

[1] = test system: Staphylococcus aureus (MRSA); test: MIC agar dilution, micro-organism 12 (11939); settings: Staphylococcus aureus (MRSA) 11939
How it was run: as §1

Providencia rettgeri = test: MIC agar dilution, micro-organism 3 (7475); settings: Providencia rettgeri 7475
How it was run: as §1

Candida glabrata = test: MIC agar dilution, micro-organism 20 (3943); settings: Candida glabrata 3943
How it was run: as §1

[2] = test system: Staphylococcus epidermidis; test: MIC agar dilution, micro-organism 14 (11047); settings: Staphylococcus epidermidis 11047
How it was run: as §1

MRSA EMRSA 16 00998/95 = test: MIC agar dilution, MRSA strain 47; settings: Staphylococcus aureus
Procedure: (§2) Molar equivalent concentrations were used to allow comparison between compounds of differing molecular mass. Due to weighing difficulties, any compound in solid form was melted in a water bath prior to dilution. To make ten-times strength concentrations, which takes into account agar dilution, 0.0352 mmol of each compound was weighed into plastic universal bottles and 4 mL of sterile distilled water (SDW) was added. To produce a homogenous emulsion the universals were vortexed; once achieved the emulsions were serial diluted by adding 2 mL to 2 mL of SDW.
(§3) For every 100 mL of Isosensitest agar (IST) (CM0471; Oxoid, Basingstoke, England), 3.1 g of the IST powder was added to 100 mL SDW (as per manufacturer's instructions) and sterilised for 15 minutes at 121° C. Once sterilised, the molten agar was cooled to 50° C. in a water-bath. Subsequently 4.8 g of CCEY powder (BC2160; Bioconnections, Wetherby, England), also known as Brazier's medium, was added to 100 mL SDW for every 100 mL of agar needed. This was then sterilised for 15 minutes at 121° C. Once sterilised the molten agar was cooled to 50° C. in a water-bath and 4 mL of egg-yolk emulsion (S2073; TCS Biosciences Ltd, Buckingham, United Kingdom) and 1 mL of lysed defibrinated horse blood (HB035; TCS Biosciences Ltd, Buckingham, United Kingdom) were also added for every 100 mL needed. Horse blood lysis is achieved by dilution to half concentration with SDW; when fully lysed the mixture will turn dark red in colour.
(§4) 18 mL agar was added to each universal and then poured into sterile Petri dishes. This step creates a 1/10 dilution resulting in agar plates of the required strength. Control plates for each set of strains were created by adding 18 mL of agar to 2 mL of SDW.
(§5) Suspensions of each bacterial species were prepared with a density equal to that of a 0.5 McFarland standard using a densitometer. All suspensions were made using sterile distilled water and fresh 18-20 hour cultures. As a 0.5 McFarland standard contains 1.5×10^8 CFU/mL and the multipoint inoculators applies 1 μL spots of liquid, each bacterial suspension was diluted 1/15 (20 μL suspension to 280 μL sterile distilled water).
(§6) Bacterial suspensions were prepared from fresh 18-24 hour cultures as previously described. 1 μL of each strain was inoculated onto all 100 agar plates containing a different chemical concentration and the 2 control plates. This was done using a multipoint inoculator which inoculates 20 strains per plate. All plates were incubated for 22 hours at 37° C. in aerobic conditions.
(§7) Each plate was examined for bacterial growth after 22 and 48 hours, with each being incubated in between examinations. A positive result was recorded as growth of ≧10 colonies. A negative result was recorded as growth of <10 colonies as this is equivalent to 99.9% inhibition. The lowest concentration of chemical that inhibited growth was recorded as the MIC. The results are recorded in Table IV below, where the numbers are quoted in mmol/L.
(§8) Given the positive performance of the ethoxylates of lauryl alcohol in reducing the MIC for a number of the micro-organisms tested, further MIC testing of Laureth-1 [C12E1] through to Laureth-8 [C12E8] was conducted on each of the following: • 10 strains of vancomycin-resistant enterococci (VRE)—listed in Table V below; and • 20 strains of methicillin-resistant Staphylococcus aureus (MRSA)—listed in Table VI.
(§9) The alkanol, alkanol derivatives, agar plates, and inocula were all prepared in the same way as described above.
(§10) The plates were examined in the same manner as described above and the results are recorded in Table VII below, where the numbers are quoted in mmol/L.

MRSA FRA 95035 = test: MIC agar dilution, MRSA strain 37; settings: Staphylococcus aureus
Procedure: as §2, §3, §4, §5, §6, §7, §8, §9, §10

MRSA EMRSA 15 21268/98 = test: MIC agar dilution, MRSA strain 40; settings: Staphylococcus aureus
Procedure: as §2, §3, §4, §5, §6, §7, §8, §9, §10

[3] = test system: MRSA GER 1966/97 (Hanover IIIc); test: MIC agar dilution, MRSA strain 36; settings: Staphylococcus aureus
Procedure: as §2, §3, §4, §5, §6, §7, §8, §9, §10

MRSA EMRSA 16 18200/95 = test: MIC agar dilution, MRSA strain 48; settings: Staphylococcus aureus
Procedure: as §2, §3, §4, §5, §6, §7, §8, §9, §10

MRSA BEL 97597 = test: MIC agar dilution, MRSA strain 33; settings: Staphylococcus aureus
Procedure: as §2, §3, §4, §5, §6, §7, §8, §9, §10

MRSA EMRSA 16 03732/95 = test: MIC agar dilution, MRSA strain 45; settings: Staphylococcus aureus
Procedure: as §2, §3, §4, §5, §6, §7, §8, §9, §10

[4] = test system: Enterococcus faecium (VRE) MB 305; test: MIC agar dilution, VRE strain 25
Procedure: as §2, §3, §4, §5, §6, §7, §8, §9, §10

[5] = Staphylococcus aureus, MRSA, 22 h, 22 hrs, read-out: MIC
[6] = Staphylococcus aureus, MRSA, 48 h, 48 hrs, read-out: MIC
[7] = Nakaseomyces glabratus, 22 h, 22 hrs, read-out: MIC
[8] = Nakaseomyces glabratus, 48 h, 48 hrs, read-out: MIC

| SMILES | MIC (Steptococcus pyogenes; 22 h, 22 hrs, read-out: MIC) [µM] | MIC (Steptococcus pyogenes; 48 h, 48 hrs, read-out: MIC) [µM] | MIC [1, 5] [µM] | MIC [1, 6] [µM] | MIC (Providencia rettgeri; 22 hrs, read-out: MIC) [µM] | MIC (Providencia rettgeri; 48 hrs, read-out: MIC) [µM] | MIC (Candida glabrata; [7]) [µM] | MIC (Candida glabrata; [8]) [µM] | MIC ([2]; 22 hrs, read-out: MIC) [µM] | MIC ([2]; 48 hrs, read-out: MIC) [µM] | MIC (MRSA EMRSA 16 00998/95; 22 hrs) [µM] | MIC (MRSA EMRSA 16 00998/95; 48 hrs) [µM] | MIC (MRSA FRA 95035; 22 hrs) [µM] | MIC (MRSA FRA 95035; 48 hrs) [µM] | MIC (MRSA EMRSA 15 21268/98; 22 hrs) [µM] | MIC (MRSA EMRSA 15 21268/98; 48 hrs) [µM] | MIC ([3]; 22 hrs) [µM] | MIC ([3]; 48 hrs) [µM] | MIC (MRSA EMRSA 16 18200/95; 22 hrs) [µM] | MIC (MRSA EMRSA 16 18200/95; 48 hrs) [µM] | further results |
| --- | --- | --- | --- | --- | --- | --- | --- | --- | --- | --- | --- | --- | --- | --- | --- | --- | --- | --- | --- | --- | --- |
| CCCCCCCCCCCCCCCCO [C0, 1-Hexadecanol, reference compound] | 220 (≈ 53.3 µg/mL) | 440 (≈ 107 µg/mL) | > 880 | > 880 | 110 (≈ 26.7 µg/mL) | 110 (≈ 26.7 µg/mL) | 880 (≈ 213 µg/mL) | > 880 | > 880 | > 880 |  |  |  |  |  |  |  |  |  |  |  |
| CCCCCCCCCCCCCOCCOCCOCCOCCOCCOCCO [C13E6, polyoxyethylene (6) tridecyl alcohol] |  |  |  |  |  |  |  |  |  |  |  |  |  |  |  |  |  |  |  |  | MIC (Steptococcus pyogenes; 22 hrs): 55 µM (≈ 25.6 µg/mL); MIC (Steptococcus pyogenes; 48 hrs): 55 µM (≈ 25.6 µg/mL); MIC ([1]; 22 hrs): 110 µM (≈ 51.1 µg/mL); MIC ([1]; 48 hrs): 110 µM (≈ 51.1 µg/mL); MIC (Providencia rettgeri; 22 hrs): >880 µM; MIC (Providencia rettgeri; 48 hrs): >880 µM; MIC (Candida glabrata; 22 hrs): >880 µM; MIC (Candida glabrata; 48 hrs): >880 µM; MIC ([2]; 22 hrs): 110 µM (≈ 51.1 µg/mL); MIC ([2]; 48 hrs): 110 µM (≈ 51.1 µg/mL) |
| CCCCCCCCCCCCOCCO [L1, Ethylene Glycol Monododecyl Ether] | 220 (≈ 50.7 µg/mL) | 220 (≈ 50.7 µg/mL) | 440 (≈ 101 µg/mL) | 440 (≈ 101 µg/mL) | > 880 | > 880 | 220 (≈ 50.7 µg/mL) | 220 (≈ 50.7 µg/mL) | 220 (≈ 50.7 µg/mL) | 220 (≈ 50.7 µg/mL) | 220 (≈ 50.7 µg/mL) | 220 (≈ 50.7 µg/mL) | 220 (≈ 50.7 µg/mL) | 220 (≈ 50.7 µg/mL) | 220 (≈ 50.7 µg/mL) | 220 (≈ 50.7 µg/mL) | 220 (≈ 50.7 µg/mL) | 220 (≈ 50.7 µg/mL) | 220 (≈ 50.7 µg/mL) | 220 (≈ 50.7 µg/mL) | MIC (MRSA BEL 97597; 22 hrs): 220 µM (≈ 50.7 µg/mL); MIC (MRSA BEL 97597; 48 hrs): 220 µM (≈ 50.7 µg/mL); MIC (MRSA EMRSA 16 03732/95; 22 hrs): 220 µM (≈ 50.7 µg/mL); MIC (MRSA EMRSA 16 03732/95; 48 hrs): 220 µM (≈ 50.7 µg/mL); MIC ([4]; 22 hrs): 440 µM (≈ 101 µg/mL); MIC ([4]; 48 hrs): 880 µM (≈ 203 µg/mL) |
| CCCCCCCCCCCCOCCOCCO [L2, Diethylene Glycol Monododecyl Ether] | 110 (≈ 30.2 µg/mL) | 110 (≈ 30.2 µg/mL) | 110 (≈ 30.2 µg/mL) | 110 (≈ 30.2 µg/mL) | > 880 | > 880 | 110 (≈ 30.2 µg/mL) | 110 (≈ 30.2 µg/mL) | 110 (≈ 30.2 µg/mL) | 110 (≈ 30.2 µg/mL) | 110 (≈ 30.2 µg/mL) | 110 (≈ 30.2 µg/mL) | 220 (≈ 60.4 µg/mL) | 220 (≈ 60.4 µg/mL) | 110 (≈ 30.2 µg/mL) | 110 (≈ 30.2 µg/mL) | 110 (≈ 30.2 µg/mL) | 110 (≈ 30.2 µg/mL) | 110 (≈ 30.2 µg/mL) | 110 (≈ 30.2 µg/mL) | MIC (MRSA BEL 97597; 22 hrs): 110 µM (≈ 30.2 µg/mL); MIC (MRSA BEL 97597; 48 hrs): 110 µM (≈ 30.2 µg/mL); MIC (MRSA EMRSA 16 03732/95; 22 hrs): 110 µM (≈ 30.2 µg/mL); MIC (MRSA EMRSA 16 03732/95; 48 hrs): 110 µM (≈ 30.2 µg/mL); MIC ([4]; 22 hrs): 880 µM (≈ 242 µg/mL); MIC ([4]; 48 hrs): 880 µM (≈ 242 µg/mL) |
